The values below come from patent US20250170266A1 (ZYMEWORKS BC INC., priority 2022, published 2025).

What all share (format): cell-based
Test [1] addresses T1, hTLR7 (Homo sapiens, UniProt Q9NYK1).
T1 construct: host or cells: HEK-Blue hTLR7 reporter cells (HEK293-derived, own knowledge)
T1 sequence (Q9NYK1 27-1049): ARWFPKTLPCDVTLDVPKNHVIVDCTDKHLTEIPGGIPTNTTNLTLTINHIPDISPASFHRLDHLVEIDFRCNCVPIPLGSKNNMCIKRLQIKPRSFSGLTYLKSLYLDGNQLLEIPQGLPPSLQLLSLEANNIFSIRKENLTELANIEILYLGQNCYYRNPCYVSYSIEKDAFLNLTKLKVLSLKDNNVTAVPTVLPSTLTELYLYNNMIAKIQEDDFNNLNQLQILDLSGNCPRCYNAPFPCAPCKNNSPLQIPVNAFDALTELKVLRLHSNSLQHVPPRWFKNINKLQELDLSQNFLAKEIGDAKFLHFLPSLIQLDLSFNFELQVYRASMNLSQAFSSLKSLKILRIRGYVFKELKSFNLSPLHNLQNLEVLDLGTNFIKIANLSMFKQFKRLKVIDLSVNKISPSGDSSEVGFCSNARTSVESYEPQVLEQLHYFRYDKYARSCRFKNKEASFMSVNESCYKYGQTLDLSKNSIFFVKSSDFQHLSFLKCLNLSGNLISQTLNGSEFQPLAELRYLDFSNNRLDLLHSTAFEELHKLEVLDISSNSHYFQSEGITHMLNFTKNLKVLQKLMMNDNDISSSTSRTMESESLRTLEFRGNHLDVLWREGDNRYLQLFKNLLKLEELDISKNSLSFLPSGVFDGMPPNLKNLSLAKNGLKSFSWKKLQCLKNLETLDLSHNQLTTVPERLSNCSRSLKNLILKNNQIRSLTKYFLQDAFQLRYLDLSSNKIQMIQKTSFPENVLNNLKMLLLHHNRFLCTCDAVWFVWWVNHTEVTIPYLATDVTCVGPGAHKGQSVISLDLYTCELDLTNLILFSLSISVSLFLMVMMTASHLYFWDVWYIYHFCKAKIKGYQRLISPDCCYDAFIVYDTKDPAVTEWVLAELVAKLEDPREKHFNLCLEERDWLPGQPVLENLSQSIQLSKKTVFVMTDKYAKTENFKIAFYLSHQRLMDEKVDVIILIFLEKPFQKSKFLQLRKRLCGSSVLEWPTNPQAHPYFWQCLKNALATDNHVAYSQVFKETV
Description: Reporter Gene Assay (RGA), HEK-Blue hTLR7 reporter cells, SEAP readout. The note with it: overnight incubation, SEAP absorbance 620 nm. In short, it runs like this: (§1)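 HEK-Blue reporter cells expressing human or mouse TLR7 (1.5×10^4 cells) were treated with an 11-point, 4-fold compound titration from 15 pM in HEK-Blue Detection medium. Incubation was overnight at 37° C with 5% CO2. Secreted embryonic alkaline phosphatase was read as absorbance at 620 nm.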
On the technique in general: In a reporter assay the amount or activity of a reporter protein is the signal.

Test [2] has as its target T2, mTLR7 (Mus musculus, UniProt P58681).
T2 construct: host or cells: HEK-Blue mTLR7 reporter cells (HEK293-derived, own knowledge)
T2 sequence (P58681 27-1050): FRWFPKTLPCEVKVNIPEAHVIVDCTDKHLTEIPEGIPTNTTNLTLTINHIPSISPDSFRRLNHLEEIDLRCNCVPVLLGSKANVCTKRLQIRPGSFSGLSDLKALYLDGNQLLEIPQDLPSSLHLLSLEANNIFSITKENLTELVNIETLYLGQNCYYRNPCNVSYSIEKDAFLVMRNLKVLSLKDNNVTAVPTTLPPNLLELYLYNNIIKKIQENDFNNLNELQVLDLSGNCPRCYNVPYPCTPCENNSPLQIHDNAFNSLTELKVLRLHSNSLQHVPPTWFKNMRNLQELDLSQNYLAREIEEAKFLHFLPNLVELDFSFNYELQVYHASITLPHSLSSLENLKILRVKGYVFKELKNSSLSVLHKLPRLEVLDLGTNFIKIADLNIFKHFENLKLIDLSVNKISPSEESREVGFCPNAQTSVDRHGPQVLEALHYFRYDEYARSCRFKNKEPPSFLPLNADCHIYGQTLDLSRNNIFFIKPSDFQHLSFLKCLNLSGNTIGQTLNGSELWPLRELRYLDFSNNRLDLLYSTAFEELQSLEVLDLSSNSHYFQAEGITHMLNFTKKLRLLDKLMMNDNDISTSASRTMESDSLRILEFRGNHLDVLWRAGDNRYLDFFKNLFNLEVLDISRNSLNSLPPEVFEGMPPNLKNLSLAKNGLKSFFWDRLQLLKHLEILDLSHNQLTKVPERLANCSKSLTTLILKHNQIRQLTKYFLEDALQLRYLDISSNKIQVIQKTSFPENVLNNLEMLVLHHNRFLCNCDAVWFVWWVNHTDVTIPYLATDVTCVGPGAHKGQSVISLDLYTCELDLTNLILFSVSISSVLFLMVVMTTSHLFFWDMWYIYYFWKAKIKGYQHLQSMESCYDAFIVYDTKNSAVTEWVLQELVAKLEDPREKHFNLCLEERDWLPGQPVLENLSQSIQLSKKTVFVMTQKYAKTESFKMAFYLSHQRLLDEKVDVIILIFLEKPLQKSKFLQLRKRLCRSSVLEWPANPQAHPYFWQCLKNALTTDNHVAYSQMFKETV
Nature of the test: Reporter Gene Assay (RGA), HEK-Blue mTLR7 reporter cells, SEAP readout. The note with it: overnight incubation, SEAP absorbance 620 nm. In short, it runs like this:
as §1

The test system of test [3] is Human peripheral blood mononuclear cells (PBMCs). Nature of the test: Human PBMC Assay, cytokine release (HTRF). The note with it: PBMC, 24 hours. In short, it runs like this: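 Cryopreserved human PBMCs, rested overnight with 10 ng/ml hIL3, then 300,000 cells/well treated 24 h at 37° C with compound (4-fold, 11-point titration from 15 μM) in RPMI+10% FBS. Supernatant hIL6, hTNFα and hIFNα measured by HTRF; growth medium as negative control.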
For orientation: Time-resolved FRET reads energy transfer from a long-lived donor to a nearby acceptor.

Test [4] has as its system Mouse splenocytes. Description: Mouse Splenocyte Assay, cytokine release (HTRF). The note with it: Splenocyte, 24 hours, mIL6 in supernatant, read-out: Splenocyte IL6 EC50. The essentials:
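Splenocytes from female balb/c nude mice, thawed, 100,000 per well in RPMI + 10% FBS. Exposed for 24 h at 37 °C to a 4-fold 11-point compound titration from 15 μM; supernatant mIL6 and mTNFα measured by HTRF.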

[5] abbreviates: hIFNα in supernatant, EC50 values approximated and divided into groups, read-out: PBMC IFNa EC50.
Where [6] appears, read: hIL6 in supernatant, read-out: PBMC IL6 EC50.

The structures appear in SMILES notation. Where two headings read alike, the source gives them in different places. Some results are limits rather than exact numbers.

Take `CCOc1nc(N)c2nc(O)n(Cc3ccc(CNCCN4CCOCC4)cc3OC)c2n1` [Compound 135, 6-amino-2-ethoxy-9-(2-methoxy-4-(((2-morpholinoethyl)amino)methyl)benzyl)-9H-purin-8-ol]: the EC50 – broadly, the midpoint of the concentration-response curve – is 13.3 nM in test [1]; 157 nM in test [2]; 0.1 to 1 nM in test [3] (setting [5]); 42.3 nM in test [3] (setting [6]); 137 nM in test [4].

On to `CCOc1nc(N)c2nc(O)n(Cc3ccc(CNCCN4CCSCC4)cc3OC)c2n1` [Compound 137, 6-amino-2-ethoxy-9-(2-methoxy-4-(((2-thiomorpholinoethyl)amino)methyl)-benzyl)-9H-purin-8-ol], for which the EC50 was 22.2 nM in test [1]; 210 nM in test [2]; 0.1 to 1 nM in test [3] (setting [5]); 39.4 nM in test [3] (setting [6]); 230 nM in test [4].

As to `CCOc1nc(N)c2nc(O)n(Cc3ccc(CN4CCC(C5CCNCC5)CC4)cc3OC)c2n1` [Compound 138, 9-(4-([4,4′-bipiperidin]-1-ylmethyl)-2-methoxybenzyl)-6-amino-2-ethoxy-9H-purin-8-ol], the EC50 in test [1] was 17.2 nM; in test [2], 243 nM; in test [3] (setting [5]) it was above 10 nM; in test [3] (setting [6]), 130 nM; in test [4], 186 nM.

On to `CCOc1nc(N)c2nc(O)n(Cc3ccc(CN4CCC5(CCNCC5)CC4)cc3OC)c2n1` [Compound 139, 9-(4-((3,9-diazaspiro[5.5]undecan-3-yl)methyl)-2-methoxybenzyl)-6-amino-2-ethoxy-9H-purin-8-ol], for which the EC50 in test [1] was 6.5 nM; in test [2], 96.5 nM; in test [3] (setting [5]), above 10 nM; in test [3] (setting [6]), 115 nM; in test [4] it was 170 nM.

For the compound `CCOc1nc(N)c2nc(O)n(Cc3ccc(CN4CCC(CCN)CC4)cc3OC)c2n1` [Compound 140, 6-amino-9-(4-((4-(2-aminoethyl)piperidin-1-yl)methyl)-2-methoxybenzyl)-2-ethoxy-9H-purin-8-ol], the EC50 in test [1] is 6.8 nM; in test [2], 34.8 nM; in test [3] (setting [5]), above 10 nM; in test [3] (setting [6]) it was 53.6 nM; in test [4] it was 180 nM.

With `CCCN(CCC)Cc1ccc(CNCc2ccc(Cn3c(O)nc4c(N)nc(OCC)nc43)c(OC)c2)cc1` [Compound 141, 6-amino-9-(4-(((4-((dipropylamino)methyl)benzyl)amino)methyl)-2-methoxy-benzyl)-2-ethoxy-9H-purin-8-ol], the half-maximal effective concentration (EC50) is 0.1 nM in test [1]; 1 nM in test [2]; below 0.1 nM in test [3] (setting [5]); 9290 nM in test [3] (setting [6]); 1.3 nM in test [4].

`CCOc1nc(N)c2nc(O)n(Cc3ccc(CNCc4ccc(CN5CCOCC5)cc4)cc3OC)c2n1` [Compound 142, 6-amino-2-ethoxy-9-(2-methoxy-4-(((4-(morpholinomethyl)benzyl)amino)-methyl)benzyl)-9H-purin-8-ol]: the EC50 is 2.6 nM in test [1]; 14.6 nM in test [2]; below 0.1 nM in test [3] (setting [5]); 13.6 nM in test [3] (setting [6]); 9.9 nM in test [4].

For `CCOc1nc(N)c2nc(O)n(Cc3ccc(CNCc4ccc(CN5CCC(NC(=O)OC(C)(C)C)CC5)cc4)cc3OC)c2n1` [Compound 143, tert-butyl-(1-(4-(((4-((6-amino-2-ethoxy-8-hydroxy-9H-purin-9-yl)methyl)-3-methoxybenzyl)amino)methyl)benzyl)piperidin-4-yl)carbamate], the EC50 in test [1] is 0.2 nM; in test [2], 15.1 nM; in test [3] (setting [5]), below 0.1 nM; in test [3] (setting [6]), 27.1 nM; in test [4] it was 9.6 nM.

For the compound `CCOc1nc(N)c2nc(O)n(Cc3ccc(CNCc4ccc(CN5CCC(N)CC5)cc4)cc3OC)c2n1` [Compound 144, 6-amino-9-(4-(((4-((4-aminopiperidin-1-yl)methyl)benzyl)amino)methyl)-2-methoxybenzyl)-2-ethoxy-9H-purin-8-ol], the EC50 is 79.5 nM in test [1]; 1330 nM in test [2]; above 10 nM in test [3] (setting [5]); 191 nM in test [3] (setting [6]); 372 nM in test [4].

Regarding `CCOc1nc(N)c2nc(O)n(Cc3ccc(CNCc4ccc(CN5CCNCC5)cc4)cc3OC)c2n1` [Compound 145, 6-amino-2-ethoxy-9-(2-methoxy-4-(((4-(piperazin-1-ylmethyl)benzyl)amino)-methyl)benzyl)-9H-purin-8-ol], the EC50 in test [1] amounted to 69 nM; in test [2], 142 nM; in test [3] (setting [6]), 126 nM; in test [4], 338 nM.

`CCOc1nc(N)c2nc(O)n(Cc3ccc(CNCc4ccc(CNCc5ccc(CN)cc5)cc4)cc3OC)c2n1` [Compound 146, 6-amino-9-(4-(((4-(((4-(aminomethyl)benzyl)amino)methyl)benzyl)amino)-methyl)-2-methoxybenzyl)-2-ethoxy-9H-purin-8-ol]: the EC50 in test [1] is 5.8 nM; in test [2] it was 28.7 nM; in test [3] (setting [5]) it was below 0.1 nM; in test [3] (setting [6]), 16.7 nM; in test [4], 12.9 nM.

Turning to `CCOc1nc(N)c2nc(O)n(Cc3ccc(CNCc4ccc(CNCc5ccccc5)cc4)cc3OC)c2n1` [Compound 147, 6-amino-9-(4-(((4-((benzylamino)methyl)benzyl)amino)methyl)-2-methoxy-benzyl)-2-ethoxy-9H-purin-8-ol], the concentration for a half-maximal effect (EC50) in test [1] is 0.9 nM; in test [2] it was 16.9 nM; in test [3] (setting [5]) it was below 0.1 nM; in test [3] (setting [6]), 38.8 nM; in test [4], 13.2 nM.

Turning to `CCOc1nc(N)c2nc(O)n(Cc3ccc(CN4CCNCC4)cc3)c2n1` [Compound 150, 6-amino-2-ethoxy-9-(4-(piperazin-1-ylmethyl)benzyl)-9H-purin-8-ol], the EC50 was 6.9 nM in test [1]; 83.8 nM in test [2]; 0.1 to 1 nM in test [3] (setting [5]); 322 nM in test [3] (setting [6]); 2130 nM in test [4].
